Results on one compound are retold here after US6500800B1, “Composition and method for causing photodynamic damage to target cells” (priority 1996, dated 2002).

Structures are written as SMILES. Like-named read-outs stand apart in the source and are kept apart here.

The subject of this experiment is Human hepatoma PLC/PRF/5 cells. As to the kind of experiment: Photodynamic damage (PDD), survival rate of cells versus concentration after irradiation. The format is cell-based. An excerpt: A stands for (P10)-insulin-(chlorin e6); B stands for (β-galactosidase)-insulin-(chlorin e6); C stands for chlorin e6; […] Survival rate of human hepatoma PLC/PRF/5 cells plotted against concentration of compositions and chlorin e6 is depicted in FIGS. 2 and 3.

`C=Cc1c(C)c2cc3nc(c(CC(=O)O)c4[nH]c(cc5nc(cc1[nH]2)C(C)=C5CC)c(C)c4C(=O)O)[C@@H](CCC(=O)O)[C@@H]3C` [chlorin e6]: the EC50 reads like this: (irradiation dose of 12.3 kJ/m^2, read-out: EC50 value (concentration of a semi-maximal effect)) 11.5 µM; (irradiation dose of 96 kJ/m^2, read-out: EC50 value) 0.35 µM.
